Source: patent publication US8252807B2, “Methods of inhibiting the interaction between S100 and the receptor for advanced glycation end-products” (Board of Regents, The University of Texas System, priority 2007, dated 2012)

What was measured:
MPan-96 cells = test: MPanc-96 cell invasiveness; format: cell-based, human
[1] = system: NFκB promoter activity in Panc-1 cells; test: Luciferase assay for NFκB activity, Panc-1; format: cell-based
Procedure: FIGS. 3A, 3B, and 3C show the effect of cromolyn on S100P stimulated NFκB promoter activity in pancreatic cancer cells in vitro and in vivo. Panc-1 and BxPC-3 pancreatic cancer cell lines stably expressing an NFκB luciferase reporter were examined for the effects of S100P and cromolyn. […] Means and 95% confidence intervals are shown for three independent experiments performed in triplicate. *, P=0.022, †, P<0.001, and ‡, P<0.001 versus control; #, P=0.005 versus 100 nM S100P alone. […] Means and 95% confidence intervals are shown for three independent experiments performed in triplicate. *, P=0.003, †, P<0.001 versus control. […] After 1 week, tumor growth was assessed and NFκB activity was analyzed using an IVIS system (Xenogen Corp., Alameda, Calif.) after injecting mice with D-luciferin (150 mg per kg body weight) (0 time point). The mice were treated with cromolyn (5 mg per kg body weight by intraperitoneal injection), and NFκB luciferase activity was analyzed again at 24 and 48 hours. *, P=0.005 versus control. Means and 95% confidence intervals are shown for two independent experiments (n=4 mice per group). Two-tailed two-sample (unpaired for in vitro and paired for in vivo studies) Student's t-tests were used to determine P values.
To study pancreatic cancer cell NFκB activity, a lentivirus NFκB luciferase reporter gene construct was developed. The NFκB luciferase reporter gene was excised and isolated from the pNF-κB-Luc Vector (Clonetec, Mountain View, Calif.) and cloned into the lentiviral vector FG9 (Gift from Dr. Xiao-Feng Qin, Dept. of Immunology, M.D. Anderson Cancer Center replacing the CMV/LTR and UBiC promoters, to form Lenti-NFκB-Luc. Lentiviral NFκB vector were co-transfected with packaging constructs pRSVREV, pMDLg/pRRE, and the VSV-G expression plasmid pHCMVG, and lentivirus was produced in 293T cells by the calcium transfection method, as previously described in Qin, et al., Inhibiting HIV-1 infection in human T cells by lentiviral-mediated delivery of small interfering RNA against CCR5; Proc. Natl. Acad. Sci. U.S.A. 2003 Jan. 7; 100(1):183-8. […] Functional validation of NFκB reporter activity was conducted in vitro using TNF-α (20 ng/mL, Sigma, St. Louis, Mo.) as a positive control.
BxPC-3 and Panc-1 cells stably expressing a Lenti-NFkB-luc reporter construct were treated with S100P, cromolyn, or the combination for 5 hours. D-luciferin (150 μg/mL) was added to the cells, and luciferase activity was measured using an IVIS bioluminescence system (Xenogen Co. Alameda, Calif.). Each experiment was conducted three times in triplicate.

Panc-1 cells = test: Matrigel invasion assay, Panc-1; format: cell-based; details: 24 hours
Procedure: FIGS. 2A-2D show the effect of cromolyn on pancreatic cancer cell invasion. Panc-1 and BxPC-3 cells were plated in Bio-coat matrigel and control chambers and cultured in serum-free culture media. After 24 hours non-invaded cells in the upper chamber were removed, and cells that invaded onto the lower surface of the membrane were counted from five adjacent fields. […] Data are expressed as the percent invasion through the matrigel matrix and membrane relative to migration through the control membrane. Means and 95% confidence intervals from three independent experiments performed in triplicate are shown. Two-tailed two-sample (unpaired) Student's t-tests were used to determine P values.
Panc-1 and BxPC-3 cells were seeded in BIOCOAT matrigel invasion chambers and in control chambers without matrigel (Becton-Dickinson, Bedford, Mass.) according to the manufacturer's protocol. Panc-1 cells were seeded with S100P (100 nM) with or without cromolyn (100 μM), and BxPC-3 cells were seeded with or without cromolyn (1-100 μM). Briefly, 2.0×10^5 cells in 300 μL top solution (serum-free media) were added to each chamber and allowed to invade matrigel for 24 hours at 37° C. in a 5% CO2 atmosphere. The non-invading cells on the upper surface of membrane were removed from the chambers with a cotton swab, and the invading cells on the lower surface of the membrane were fixed and stained using a Diff-Quick stain kit (Becton Dickinson, Bedford, Mass.). After two washes with water, the chambers were allowed to air dry. The numbers of invading cells in five adjacent microscope fields per membrane were counted at 20× magnification to obtain the average number of cells per field. Data are expressed as the percent invasion through the matrigel matrix and membrane relative to the migration through the control membrane. The assays were performed three times.

MPanc-96 cells = test: MPanc-96 cell apoptosis by flow cytometry, 72 hours; format: cell-based, human; details: 100 and 1000 nM, with or without gemcitabine 10 μM
Procedure: FIG. 11 compares the effects of cromolyn and C5 alone and in combination with gemcitabine on MPanc-96 cell apoptosis. MPanc-96 cells were treated with cromolyn or C5 (100 and 1000 nM) with (+) or without (−) gemcitabine (10 μM). Apoptosis was analyzed after 72 hours by flow cytometry.

O=C(O)c1cc(=O)c2c(OCC(O)COc3cccc4oc(C(=O)O)cc(=O)c34)cccc2o1 [cromolyn, disodium 1,3-bis[(2′-carboxylatochromon-5′-yl)oxy]-2-hydroxypropane]
MPanc-96 basal cell invasiveness (MPan-96 cells): inhibited basal cell invasiveness | NFκB promoter activity in Panc-1 cells, mean ([1]; S100P 100 nM + cromolyn 100 μM, 5 hours, S100P alone mean=14460): 7360 photons/sec | NFκB promoter activity in Panc-1 cells, difference S100P alone versus combination with cromolyn ([1]; S100P 100 nM, cromolyn 100 μM): 7100 photons/sec | basal NFκB activity in Panc-1 cells ([1]; cromolyn 100 μM, no S100P, 5 hours): no effect | Panc-1 cells invaded, difference S100P versus S100P+cromolyn (Panc-1 cells): 48.6% | Panc-1 cells invaded, mean (Panc-1 cells; S100P 100 nM + cromolyn 100 μM): 9.4% | Panc-1 basal cell invasion (Panc-1 cells; no S100P): did not reduce basal cell invasion | MPanc-96 cell viability (MPanc-96 cells): inhibit MPanc-96 cell viability
